From ChEMBL document CHEMBL1201862, “PubChem BioAssay data set” (2004) come the findings set out here.

The structures appear in SMILES notation.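 Growth conditions: 96-well plates. Treatment: test compound, 48 hours, 5 concentrations. Analysis: linear interpolation between bracketing concentrations; unreached endpoints set to highest concentration. At the GI50, growth is halved.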 Calls of active or inactive are those of the source. Rule as the data show it: active = GI50 up to about 1.1 µM and inactive = higher.

Test systems include A549; ACHN; BT-549; COLO 205; HCT-116; HOP-92; HT-29; IGROV-1; KM12; MDA-N; MOLT-4; Malme-3M; NCI-H226; OVCAR-8; RPMI-8226; SF-539; SW-620; T47D; SNB-75.
Test in all cases: DTP human tumour cell line panel, 48 h

As to `C=CCC1(C)CCCN(Cc2ccccc2)C1=O` (stereo not given), the GI50 in the assay with A549, with ACHN, in the assay with BT-549, in the assay on COLO 205, in the assay on HCT-116 and with HOP-92 was > 10 µM (inactive) each time. Moreover, the GI50 (as a rule, the concentration that inhibits growth by half) in the assay with HT-29 is > 10 µM (inactive); in the assay on IGROV-1, 0.863 µM (active); in the assay on KM12 it was > 10 µM (inactive); in the assay on MDA-N, > 10 µM (inactive); in the assay on MOLT-4 it was > 10 µM (inactive); in the assay on Malme-3M, 0.0161 µM (active). In addition, the GI50 with NCI-H226, in the assay with OVCAR-8, in the assay on RPMI-8226, in the assay on SF-539, in the assay on SW-620 and in the assay with T47D was > 10 µM (inactive) each time.

As to `O=S(=O)(c1ccc(Br)cc1)n1c2ccc(Br)cc2c2nc3ccccc3nc21`, the GI50 was > 100 µM (inactive) in the assay with A549; 39.6 µM (inactive) with ACHN; > 100 µM (inactive) in the assay on BT-549; > 100 µM (inactive) in the assay with COLO 205; > 100 µM (inactive) in the assay with HCT-116; 39.7 µM (inactive) with HOP-92. Further, the GI50 in the assay on HT-29 is > 100 µM (inactive); in the assay with IGROV-1, 78.7 µM (inactive); in the assay with KM12, > 100 µM (inactive); in the assay on MDA-N it was > 100 µM (inactive); in the assay on MOLT-4, > 100 µM (inactive); in the assay on Malme-3M it was > 100 µM (inactive). The GI50 is > 100 µM (inactive) with NCI-H226; 55.5 µM (inactive) in the assay on OVCAR-8; > 100 µM (inactive) in the assay with RPMI-8226; 25.9 µM (inactive) with SNB-75; > 100 µM (inactive) in the assay on SW-620; 61.8 µM (inactive) in the assay on T47D.

Regarding `O=C1N2CCc3c([nH]c4ccccc34)C23CC2CCCCC12S3` (stereo not given), the GI50 with A549, with ACHN, with BT-549, in the assay on COLO 205, in the assay on HCT-116 and in the assay with HOP-92 was > 100 µM (inactive) throughout. Besides, the GI50 was > 100 µM (inactive) in the assay on HT-29; > 100 µM (inactive) with IGROV-1; > 100 µM (inactive) in the assay with KM12; > 100 µM (inactive) in the assay with MDA-N; 24.7 µM (inactive) with MOLT-4; > 100 µM (inactive) in the assay on Malme-3M. Also, the GI50 in the assay on NCI-H226 was > 100 µM (inactive); in the assay on OVCAR-8 it was > 100 µM (inactive); with RPMI-8226, 48.8 µM (inactive); in the assay with SF-539, > 100 µM (inactive); with SW-620 it was > 100 µM (inactive); in the assay with T47D it was > 100 µM (inactive).

Regarding `O=C1NC(=O)C(CCC(=O)c2cccc3ccccc23)C(=O)N1`, the GI50 in the assay on A549, with ACHN, with BT-549, with COLO 205, in the assay with HCT-116 and in the assay on HOP-92 was > 100 µM (inactive) throughout. The GI50 in the assay with HT-29 is > 100 µM (inactive); in the assay on KM12 it was > 100 µM (inactive); with MDA-N, > 100 µM (inactive); in the assay on MOLT-4 it was > 100 µM (inactive); with NCI-H226, 77.8 µM (inactive); with OVCAR-8 it was > 100 µM (inactive). The GI50 is 48.8 µM (inactive) in the assay with RPMI-8226; > 100 µM (inactive) in the assay on SF-539; 26.4 µM (inactive) with SNB-75; > 100 µM (inactive) in the assay with SW-620; > 100 µM (inactive) in the assay on T47D.

On to `CC(=N\N)/C(C)=N/N=C(C)/C(C)=N/N`, for which the GI50 with A549, in the assay on ACHN, in the assay with BT-549, in the assay on COLO 205, with HCT-116 and in the assay with HOP-92 was > 100 µM (inactive) in each case. In addition, the GI50 in the assay with HT-29, with IGROV-1, with KM12, with MDA-N, in the assay on Malme-3M and with NCI-H226 was > 100 µM (inactive) in each case. Also, the GI50 in the assay with OVCAR-8, in the assay with RPMI-8226, with SF-539, with SNB-75, in the assay on SW-620 and in the assay on T47D was > 100 µM (inactive) in each case.

For `COc1cc(/C=N/n2c(-c3ccccc3)n[nH]c2=O)cc(OC)c1OC`, the GI50 in the assay on A549 was 4.95 µM (inactive); in the assay on ACHN, 4.02 µM (inactive); with BT-549 it was 2.13 µM (inactive); with HCT-116 it was 0.641 µM (active); with HOP-92, 13.8 µM (inactive); in the assay with HT-29, 4.39 µM (inactive). The GI50 was 2.43 µM (inactive) with IGROV-1; 0.425 µM (active) in the assay with KM12; 0.174 µM (active) in the assay on MDA-N; 0.733 µM (active) in the assay with MOLT-4; 1.46 µM (inactive) in the assay with Malme-3M; > 41.3 µM (inactive) with NCI-H226. Moreover, the GI50 in the assay with OVCAR-8 was 4.81 µM (inactive); in the assay on RPMI-8226 it was 1.38 µM (inactive); in the assay on SF-539, 1.96 µM (inactive); in the assay on SNB-75, 2.48 µM (inactive); in the assay with T47D, > 100 µM (inactive).

As for `CCN(CCN(CC)C(=O)NC)C(=O)NC`, the GI50 with A549, in the assay with ACHN, with BT-549, with COLO 205, in the assay with HCT-116 and in the assay on HOP-92 was > 100 µM (inactive) throughout. Also, the GI50 with HT-29, in the assay on IGROV-1, in the assay on MDA-N, with MOLT-4, with Malme-3M and in the assay on NCI-H226 was > 100 µM (inactive) each time. Moreover, the GI50 in the assay on OVCAR-8, in the assay with RPMI-8226, in the assay on SNB-75, with SW-620 and in the assay on T47D was > 100 µM (inactive) throughout.

Regarding `CC(=S)N/C=C1/C(=O)C=C(C)OC1=O`, the GI50 in the assay on A549, in the assay with ACHN, with BT-549, with COLO 205, in the assay with HCT-116 and in the assay with HOP-92 was > 100 µM (inactive) throughout. Besides, the GI50 in the assay with HT-29, with IGROV-1, in the assay with KM12, in the assay on MDA-N, in the assay on MOLT-4 and with NCI-H226 was > 100 µM (inactive) throughout. In addition, the GI50 is > 100 µM (inactive) in the assay on OVCAR-8; > 100 µM (inactive) with RPMI-8226; > 100 µM (inactive) in the assay on SF-539; 54.3 µM (inactive) in the assay with SNB-75; > 100 µM (inactive) with SW-620; > 100 µM (inactive) with T47D.

For the compound `CCCCN1C(=O)C2Cc3c([nH]c4ccccc34)C(c3cccc(O)c3)N2C1=O` (stereo not given), the GI50 is 18.4 µM (inactive) in the assay on A549; 19.8 µM (inactive) in the assay with ACHN; 19 µM (inactive) in the assay on BT-549; 19.6 µM (inactive) in the assay with COLO 205; 18.7 µM (inactive) in the assay with HCT-116; 19.2 µM (inactive) with HOP-92. The GI50 in the assay with HT-29 was 20.9 µM (inactive); in the assay on IGROV-1, 17.5 µM (inactive); in the assay on KM12 it was 19.4 µM (inactive); with MDA-N, 19.2 µM (inactive); in the assay on MOLT-4 it was 26.7 µM (inactive); in the assay with NCI-H226, 21.5 µM (inactive). Further, the GI50 was 18.9 µM (inactive) with OVCAR-8; 23.1 µM (inactive) in the assay with RPMI-8226; 18.8 µM (inactive) in the assay with SF-539; 18.5 µM (inactive) in the assay on SNB-75; 19.9 µM (inactive) in the assay on SW-620; 24.4 µM (inactive) with T47D.

Take `C#CCSC(C=C=C)P(=O)(OC(C)C)OC(C)C` (stereo not given): the GI50 with A549 was > 100 µM (inactive); with ACHN, 42.8 µM (inactive); in the assay with BT-549 it was 26.4 µM (inactive); with COLO 205, 58.5 µM (inactive); in the assay on HCT-116, 27 µM (inactive); with HOP-92 it was > 100 µM (inactive). The GI50 was 33 µM (inactive) in the assay with HT-29; 45.7 µM (inactive) in the assay with IGROV-1; > 100 µM (inactive) with KM12; > 100 µM (inactive) in the assay with MDA-N; 21.5 µM (inactive) with MOLT-4; 31.4 µM (inactive) in the assay on Malme-3M. The GI50 was > 100 µM (inactive) with NCI-H226; > 100 µM (inactive) in the assay with OVCAR-8; 30.3 µM (inactive) with RPMI-8226; > 100 µM (inactive) with SNB-75; 37.4 µM (inactive) in the assay with SW-620; > 100 µM (inactive) in the assay on T47D.

Consider `Cc1cc(O)nc2c3c(ccc12)OC(C)(C)C=C3`, for which the GI50 is 7.33 µM (inactive) with A549; > 31.6 µM (inactive) with ACHN; 36.6 µM (inactive) in the assay with BT-549; 2.89 µM (inactive) with COLO 205; 4.45 µM (inactive) in the assay with HCT-116; > 100 µM (inactive) in the assay with HOP-92. Moreover, the GI50 in the assay on HT-29 was 5.66 µM (inactive); with IGROV-1 it was 6.44 µM (inactive); in the assay with KM12 it was 4.28 µM (inactive); with MDA-N, 2.08 µM (inactive); with MOLT-4, 5.16 µM (inactive); with Malme-3M, 13.2 µM (inactive). For the same compound, the GI50 in the assay on OVCAR-8 was 7.59 µM (inactive); with RPMI-8226, 4.47 µM (inactive); in the assay on SF-539, 3.27 µM (inactive); in the assay with SNB-75, 5 µM (inactive); in the assay with SW-620, 3.61 µM (inactive); in the assay with T47D it was > 23.3 µM (inactive).
